Assay results taken from the NIST ThermoML archive (doi:10.1016/j.jct.2019.05.021).
Numbers after ± are expanded uncertainties.

Assay: xn = mol fraction of the nth substance listed
Conditions: 100 kPa, Liquid; for viscosity: Falling or rolling sphere viscometry; for mass density: Vibrating tube method

Compound: CCCCCCCCCC(=O)OC [methyl decanoate] + CC1CCCCC1
- viscosity (293.15 K, x2 = 0): 2.125 ± 0.047 mPa·s
- viscosity (293.15 K, x2 = 0.0999): 1.953 ± 0.043 mPa·s
- viscosity (293.15 K, x2 = 0.2): 1.783 ± 0.039 mPa·s
- viscosity (293.15 K, x2 = 0.3): 1.618 ± 0.035 mPa·s
- viscosity (293.15 K, x2 = 0.4001): 1.464 ± 0.032 mPa·s
- viscosity (293.15 K, x2 = 0.4998): 1.316 ± 0.028 mPa·s
- viscosity (293.15 K, x2 = 0.5999): 1.177 ± 0.025 mPa·s
- viscosity (293.15 K, x2 = 0.6999): 1.051 ± 0.023 mPa·s
- viscosity (293.15 K, x2 = 0.8): 0.933 ± 0.02 mPa·s
- viscosity (293.15 K, x2 = 0.9): 0.825 ± 0.018 mPa·s
- mass density (293.15 K, x2 = 0): 872.25 ± 1.8 kg/m3
- mass density (293.15 K, x2 = 0.0999): 865.57 ± 1.8 kg/m3
- mass density (293.15 K, x2 = 0.2): 858.32 ± 1.7 kg/m3
- mass density (293.15 K, x2 = 0.3): 850.46 ± 1.7 kg/m3
- mass density (293.15 K, x2 = 0.4001): 841.94 ± 1.7 kg/m3
- mass density (293.15 K, x2 = 0.4998): 832.57 ± 1.7 kg/m3
- mass density (293.15 K, x2 = 0.5999): 822.32 ± 1.6 kg/m3
- mass density (293.15 K, x2 = 0.6999): 811 ± 1.6 kg/m3
- mass density (293.15 K, x2 = 0.8): 798.51 ± 1.6 kg/m3
- mass density (293.15 K, x2 = 0.9): 784.68 ± 1.6 kg/m3
- viscosity (298.15 K, x2 = 0): 1.909 ± 0.042 mPa·s
- viscosity (298.15 K, x2 = 0.0999): 1.758 ± 0.038 mPa·s
- viscosity (298.15 K, x2 = 0.2): 1.613 ± 0.035 mPa·s
- viscosity (298.15 K, x2 = 0.3): 1.473 ± 0.032 mPa·s
- viscosity (298.15 K, x2 = 0.4001): 1.339 ± 0.029 mPa·s
- viscosity (298.15 K, x2 = 0.4998): 1.209 ± 0.026 mPa·s
- viscosity (298.15 K, x2 = 0.5999): 1.084 ± 0.023 mPa·s
- viscosity (298.15 K, x2 = 0.6999): 0.969 ± 0.021 mPa·s
- viscosity (298.15 K, x2 = 0.8): 0.862 ± 0.019 mPa·s
- viscosity (298.15 K, x2 = 0.9): 0.765 ± 0.016 mPa·s
- mass density (298.15 K, x2 = 0): 868.16 ± 1.8 kg/m3
- mass density (298.15 K, x2 = 0.0999): 861.49 ± 1.7 kg/m3
- mass density (298.15 K, x2 = 0.2): 854.23 ± 1.7 kg/m3
- mass density (298.15 K, x2 = 0.3): 846.38 ± 1.7 kg/m3
- mass density (298.15 K, x2 = 0.4001): 837.84 ± 1.7 kg/m3
- mass density (298.15 K, x2 = 0.4998): 828.47 ± 1.7 kg/m3
- mass density (298.15 K, x2 = 0.5999): 818.2 ± 1.6 kg/m3
- mass density (298.15 K, x2 = 0.6999): 806.84 ± 1.6 kg/m3
- mass density (298.15 K, x2 = 0.8): 794.31 ± 1.6 kg/m3
- mass density (298.15 K, x2 = 0.9): 780.43 ± 1.6 kg/m3
- viscosity (303.15 K, x2 = 0): 1.738 ± 0.038 mPa·s
- viscosity (303.15 K, x2 = 0.0999): 1.603 ± 0.035 mPa·s
- viscosity (303.15 K, x2 = 0.2): 1.474 ± 0.032 mPa·s
- viscosity (303.15 K, x2 = 0.3): 1.35 ± 0.029 mPa·s
- viscosity (303.15 K, x2 = 0.4001): 1.232 ± 0.027 mPa·s
- viscosity (303.15 K, x2 = 0.4998): 1.12 ± 0.024 mPa·s
- viscosity (303.15 K, x2 = 0.5999): 1.012 ± 0.022 mPa·s
- viscosity (303.15 K, x2 = 0.6999): 0.907 ± 0.02 mPa·s
- viscosity (303.15 K, x2 = 0.8): 0.807 ± 0.017 mPa·s
- viscosity (303.15 K, x2 = 0.9): 0.716 ± 0.015 mPa·s
- mass density (303.15 K, x2 = 0): 864.06 ± 1.8 kg/m3
- mass density (303.15 K, x2 = 0.0999): 857.38 ± 1.7 kg/m3
- mass density (303.15 K, x2 = 0.2): 850.12 ± 1.7 kg/m3
- mass density (303.15 K, x2 = 0.3): 842.25 ± 1.7 kg/m3
- mass density (303.15 K, x2 = 0.4001): 833.72 ± 1.7 kg/m3
- mass density (303.15 K, x2 = 0.4998): 824.32 ± 1.7 kg/m3
- mass density (303.15 K, x2 = 0.5999): 814.03 ± 1.6 kg/m3
- mass density (303.15 K, x2 = 0.6999): 802.63 ± 1.6 kg/m3
- mass density (303.15 K, x2 = 0.8): 790.09 ± 1.6 kg/m3
- mass density (303.15 K, x2 = 0.9): 776.16 ± 1.6 kg/m3
- viscosity (308.15 K, x2 = 0): 1.588 ± 0.035 mPa·s
- viscosity (308.15 K, x2 = 0.0999): 1.47 ± 0.032 mPa·s
- viscosity (308.15 K, x2 = 0.2): 1.357 ± 0.03 mPa·s
- viscosity (308.15 K, x2 = 0.3): 1.247 ± 0.027 mPa·s
- viscosity (308.15 K, x2 = 0.4001): 1.142 ± 0.025 mPa·s
- viscosity (308.15 K, x2 = 0.4998): 1.038 ± 0.022 mPa·s
- viscosity (308.15 K, x2 = 0.5999): 0.937 ± 0.02 mPa·s
- viscosity (308.15 K, x2 = 0.6999): 0.843 ± 0.018 mPa·s
- viscosity (308.15 K, x2 = 0.8): 0.754 ± 0.016 mPa·s
- viscosity (308.15 K, x2 = 0.9): 0.673 ± 0.014 mPa·s
- mass density (308.15 K, x2 = 0): 859.96 ± 1.7 kg/m3
- mass density (308.15 K, x2 = 0.0999): 853.28 ± 1.7 kg/m3
- mass density (308.15 K, x2 = 0.2): 846.01 ± 1.7 kg/m3
- mass density (308.15 K, x2 = 0.3): 838.14 ± 1.7 kg/m3
- mass density (308.15 K, x2 = 0.4001): 829.57 ± 1.7 kg/m3
- mass density (308.15 K, x2 = 0.4998): 820.17 ± 1.6 kg/m3
- mass density (308.15 K, x2 = 0.5999): 809.84 ± 1.6 kg/m3
- mass density (308.15 K, x2 = 0.6999): 798.43 ± 1.6 kg/m3
- mass density (308.15 K, x2 = 0.8): 785.85 ± 1.6 kg/m3
- mass density (308.15 K, x2 = 0.9): 771.88 ± 1.6 kg/m3
- viscosity (313.15 K, x2 = 0): 1.453 ± 0.032 mPa·s
- viscosity (313.15 K, x2 = 0.0999): 1.351 ± 0.03 mPa·s
- viscosity (313.15 K, x2 = 0.2): 1.251 ± 0.027 mPa·s
- viscosity (313.15 K, x2 = 0.3): 1.152 ± 0.025 mPa·s
- viscosity (313.15 K, x2 = 0.4001): 1.057 ± 0.023 mPa·s
- viscosity (313.15 K, x2 = 0.4998): 0.963 ± 0.021 mPa·s
- viscosity (313.15 K, x2 = 0.5999): 0.872 ± 0.019 mPa·s
- viscosity (313.15 K, x2 = 0.6999): 0.787 ± 0.017 mPa·s
- viscosity (313.15 K, x2 = 0.8): 0.707 ± 0.015 mPa·s
- viscosity (313.15 K, x2 = 0.9): 0.631 ± 0.014 mPa·s
- mass density (313.15 K, x2 = 0): 855.85 ± 1.7 kg/m3
- mass density (313.15 K, x2 = 0.0999): 849.16 ± 1.7 kg/m3
- mass density (313.15 K, x2 = 0.2): 841.89 ± 1.7 kg/m3
- mass density (313.15 K, x2 = 0.3): 834.02 ± 1.7 kg/m3
- mass density (313.15 K, x2 = 0.4001): 825.43 ± 1.7 kg/m3
- mass density (313.15 K, x2 = 0.4998): 816.01 ± 1.6 kg/m3
- mass density (313.15 K, x2 = 0.5999): 805.67 ± 1.6 kg/m3
- mass density (313.15 K, x2 = 0.6999): 794.22 ± 1.6 kg/m3
- mass density (313.15 K, x2 = 0.8): 781.6 ± 1.6 kg/m3
- mass density (313.15 K, x2 = 0.9): 767.57 ± 1.5 kg/m3
- viscosity (318.15 K, x2 = 0): 1.341 ± 0.029 mPa·s
- viscosity (318.15 K, x2 = 0.0999): 1.252 ± 0.027 mPa·s
- viscosity (318.15 K, x2 = 0.2): 1.161 ± 0.025 mPa·s
- viscosity (318.15 K, x2 = 0.3): 1.072 ± 0.023 mPa·s
- viscosity (318.15 K, x2 = 0.4001): 0.986 ± 0.021 mPa·s
- viscosity (318.15 K, x2 = 0.4998): 0.904 ± 0.02 mPa·s
- viscosity (318.15 K, x2 = 0.5999): 0.822 ± 0.018 mPa·s
- viscosity (318.15 K, x2 = 0.6999): 0.743 ± 0.016 mPa·s
- viscosity (318.15 K, x2 = 0.8): 0.668 ± 0.014 mPa·s
- viscosity (318.15 K, x2 = 0.9): 0.598 ± 0.013 mPa·s
- mass density (318.15 K, x2 = 0): 851.74 ± 1.7 kg/m3
- mass density (318.15 K, x2 = 0.0999): 845.04 ± 1.7 kg/m3
- mass density (318.15 K, x2 = 0.2): 837.76 ± 1.7 kg/m3
- mass density (318.15 K, x2 = 0.3): 829.87 ± 1.7 kg/m3
- mass density (318.15 K, x2 = 0.4001): 821.28 ± 1.6 kg/m3
- mass density (318.15 K, x2 = 0.4998): 811.84 ± 1.6 kg/m3
- mass density (318.15 K, x2 = 0.5999): 801.47 ± 1.6 kg/m3
- mass density (318.15 K, x2 = 0.6999): 789.99 ± 1.6 kg/m3
- mass density (318.15 K, x2 = 0.8): 777.33 ± 1.6 kg/m3
- mass density (318.15 K, x2 = 0.9): 763.25 ± 1.5 kg/m3
- viscosity (323.15 K, x2 = 0): 1.245 ± 0.027 mPa·s
- viscosity (323.15 K, x2 = 0.0999): 1.163 ± 0.025 mPa·s
- viscosity (323.15 K, x2 = 0.2): 1.083 ± 0.024 mPa·s
- viscosity (323.15 K, x2 = 0.3): 1.003 ± 0.022 mPa·s
- viscosity (323.15 K, x2 = 0.4001): 0.925 ± 0.02 mPa·s
- viscosity (323.15 K, x2 = 0.4998): 0.847 ± 0.018 mPa·s
- viscosity (323.15 K, x2 = 0.5999): 0.772 ± 0.017 mPa·s
- viscosity (323.15 K, x2 = 0.6999): 0.7 ± 0.015 mPa·s
- viscosity (323.15 K, x2 = 0.8): 0.632 ± 0.014 mPa·s
- viscosity (323.15 K, x2 = 0.9): 0.567 ± 0.012 mPa·s
- mass density (323.15 K, x2 = 0): 847.62 ± 1.7 kg/m3
- mass density (323.15 K, x2 = 0.0999): 840.91 ± 1.7 kg/m3
- mass density (323.15 K, x2 = 0.2): 833.62 ± 1.7 kg/m3
- mass density (323.15 K, x2 = 0.3): 825.72 ± 1.7 kg/m3
- mass density (323.15 K, x2 = 0.4001): 817.11 ± 1.6 kg/m3
- mass density (323.15 K, x2 = 0.4998): 807.66 ± 1.6 kg/m3
- mass density (323.15 K, x2 = 0.5999): 797.25 ± 1.6 kg/m3
- mass density (323.15 K, x2 = 0.6999): 785.75 ± 1.6 kg/m3
- mass density (323.15 K, x2 = 0.8): 773.05 ± 1.6 kg/m3
- mass density (323.15 K, x2 = 0.9): 758.92 ± 1.5 kg/m3
